# Test results from publication PMC8155022 (Scientific Reports, 2021).
# Values joined by “and” are separate entries in the source; they are usually repeats but may differ in a detail not shown here. Equal values may be shown once. Read-outs that look alike come from different tables or passages of the source.
# Experiments:
# CCKA (h) (CCK1) = target: T1, CCKA (h) (CCK1) (Homo sapiens, UniProt P32238); assay: Cerep panel; format: binding
# T1 construct: purchased Cerep (receptors, ion channels, transporters); Eurofins Panlabs (kinases)
# T1 sequence (P32238 whole entry): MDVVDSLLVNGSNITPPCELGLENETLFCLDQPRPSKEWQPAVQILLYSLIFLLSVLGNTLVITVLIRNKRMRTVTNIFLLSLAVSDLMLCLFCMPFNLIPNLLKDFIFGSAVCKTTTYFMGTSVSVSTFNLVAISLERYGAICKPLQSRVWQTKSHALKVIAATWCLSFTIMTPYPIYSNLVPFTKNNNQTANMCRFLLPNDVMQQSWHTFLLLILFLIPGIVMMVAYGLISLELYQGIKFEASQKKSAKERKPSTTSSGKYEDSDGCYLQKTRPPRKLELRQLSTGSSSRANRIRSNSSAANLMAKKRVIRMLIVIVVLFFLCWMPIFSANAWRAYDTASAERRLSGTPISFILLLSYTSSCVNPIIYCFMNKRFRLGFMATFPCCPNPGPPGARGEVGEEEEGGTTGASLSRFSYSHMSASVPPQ
# Experimental: (§1) A panel of 52 different receptors, ion channels and transporters was tested by Cerep, Inc. (Redmond, WA).
# delta = delta (Homo sapiens, UniProt P41143); assay: GPCR panel, cAMP or calcium FLIPR assays; format: cell-based
# Experimental: (§2) 28 GPCRs were evaluated through cAMP or calcium FLIPR assays[67].
# [1] = tested on: ex vivo stimulated IL-17A production; assay: phase 1 single ascending dose study, ex vivo stimulated IL-17A production in whole blood; design: species or system human
# Experimental: The sampling was performed up to 120 h post-dose for cohort 1 (10 mg) and cohort 2 (30 mg), and extended to 504 h for cohort 3, 4 and 5.
# Whole blood samples were collected on the morning of day 1 at pre-dose and at 1, 2, 6, 12, 24, 48, 96, and 120 h post-dose in Cohorts 1 and 2. For Cohort 3,4, and 5, samples were collected the morning of day 1 at pre-dose and at 2, 6, 12, 24, 48, 120, 312 and 504 h post-dose. Blood samples (1 ml) were drawn into TruCulture tubes (Myriad RBM, Austin, TX) which contained 2 ml of cocktail containing cell culture media and stimulants, then mixed and incubated at 37 °C in a block thermostat for 48 h. The final concentrations of the stimulants in the TruCulture tube incubations were: IL-23 (50 ng/ml), and IL-1β (10 ng/ml), with anti-CD3 and anti-CD28 antibodies at standard concentration as per standard CD3/CD28 TruCulture tubes. Negative control tubes (no stimulants) were also collected at each timepoint. Supernatants were collected after the end of the incubation period and analyzed to determine concentrations of induced IL-17A using a validated immunoassay method (human IL-17A V-plex kit from Meso Scale Discovery).
# plasma protein binding = format: in vitro ADME; settings: human
# Plk3(h) = target: T2, Plk3(h) (Homo sapiens, UniProt Q9H4B4); assay: Kinase panel; format: biochemical
# T2 construct: purchased Cerep (receptors, ion channels, transporters); Eurofins Panlabs (kinases)
# Experimental: (§3) Kinase selectivity was conducted by Eurofins Panlabs Inc (St Charles, MO).
# 5-HT3 (h) = target: T3, 5-HT3 (h) (Homo sapiens, UniProt P46098); assay: Cerep panel; format: binding
# T3 construct: purchased Cerep (receptors, ion channels, transporters); Eurofins Panlabs (kinases)
# T3 sequence (P46098 24-478): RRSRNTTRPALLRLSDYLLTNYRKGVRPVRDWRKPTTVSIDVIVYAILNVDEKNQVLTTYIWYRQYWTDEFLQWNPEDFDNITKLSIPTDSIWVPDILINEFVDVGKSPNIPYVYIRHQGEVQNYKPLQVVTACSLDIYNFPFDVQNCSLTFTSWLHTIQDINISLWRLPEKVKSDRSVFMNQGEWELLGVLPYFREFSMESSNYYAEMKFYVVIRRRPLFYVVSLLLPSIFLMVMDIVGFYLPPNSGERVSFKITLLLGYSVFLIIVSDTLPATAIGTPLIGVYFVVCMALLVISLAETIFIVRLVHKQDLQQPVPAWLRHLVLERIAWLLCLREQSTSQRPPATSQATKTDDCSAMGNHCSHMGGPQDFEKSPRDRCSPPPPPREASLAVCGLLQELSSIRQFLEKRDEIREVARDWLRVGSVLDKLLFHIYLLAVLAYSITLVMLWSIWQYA
# Experimental: as §1
# A2A (h) = target: T4, A2A (h) (Homo sapiens, UniProt P29274); assay: Cerep panel; format: binding
# T4 construct: purchased Cerep (receptors, ion channels, transporters); Eurofins Panlabs (kinases)
# T4 sequence (P29274 whole entry): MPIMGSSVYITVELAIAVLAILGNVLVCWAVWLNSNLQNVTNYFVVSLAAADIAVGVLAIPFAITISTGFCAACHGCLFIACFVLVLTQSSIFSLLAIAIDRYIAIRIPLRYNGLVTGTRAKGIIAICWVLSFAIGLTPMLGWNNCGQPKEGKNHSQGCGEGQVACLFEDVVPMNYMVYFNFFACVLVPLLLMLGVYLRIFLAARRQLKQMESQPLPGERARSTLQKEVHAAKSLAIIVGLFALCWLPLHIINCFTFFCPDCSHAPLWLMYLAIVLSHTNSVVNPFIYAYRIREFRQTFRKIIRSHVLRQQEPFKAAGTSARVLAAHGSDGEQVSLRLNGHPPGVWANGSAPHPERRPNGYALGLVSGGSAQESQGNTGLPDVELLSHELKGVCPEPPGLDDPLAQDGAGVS
# Experimental: as §1
# LXRβ = target: T5, LXRβ (Homo sapiens, UniProt P55055); assay: nuclear receptor cellular GAL4 reporter assay; format: cell-based; settings: agonist and antagonist mode; read-out: potency in agonist and antagonist mode
# T5 construct: expressed in transfected cells
# D2L = D2L (Homo sapiens, UniProt P14416); assay: GPCR panel, cAMP or calcium FLIPR assays; format: cell-based
# Experimental: as §2
# ORL1 (h) (NOP) = target: T6, ORL1 (h) (NOP) (Homo sapiens, UniProt P41146); assay: Cerep panel; format: binding
# T6 construct: purchased Cerep (receptors, ion channels, transporters); Eurofins Panlabs (kinases)
# T6 sequence (P41146 whole entry): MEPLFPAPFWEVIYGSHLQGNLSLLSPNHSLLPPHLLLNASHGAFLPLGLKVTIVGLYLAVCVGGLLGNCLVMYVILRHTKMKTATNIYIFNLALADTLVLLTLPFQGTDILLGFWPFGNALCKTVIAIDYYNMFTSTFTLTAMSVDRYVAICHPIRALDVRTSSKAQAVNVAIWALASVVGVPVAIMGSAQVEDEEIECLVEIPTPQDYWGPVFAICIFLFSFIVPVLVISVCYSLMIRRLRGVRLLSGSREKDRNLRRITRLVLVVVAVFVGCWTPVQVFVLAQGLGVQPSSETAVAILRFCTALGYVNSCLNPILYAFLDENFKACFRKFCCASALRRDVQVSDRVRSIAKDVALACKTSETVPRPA
# Experimental: as §1
# CDK1/cyclinB(h) = target: T7, CDK1/cyclinB(h) (Homo sapiens, UniProt P06493); assay: Kinase panel; format: biochemical
# T7 construct: purchased Cerep (receptors, ion channels, transporters); Eurofins Panlabs (kinases)
# T7 sequence (P06493 whole entry): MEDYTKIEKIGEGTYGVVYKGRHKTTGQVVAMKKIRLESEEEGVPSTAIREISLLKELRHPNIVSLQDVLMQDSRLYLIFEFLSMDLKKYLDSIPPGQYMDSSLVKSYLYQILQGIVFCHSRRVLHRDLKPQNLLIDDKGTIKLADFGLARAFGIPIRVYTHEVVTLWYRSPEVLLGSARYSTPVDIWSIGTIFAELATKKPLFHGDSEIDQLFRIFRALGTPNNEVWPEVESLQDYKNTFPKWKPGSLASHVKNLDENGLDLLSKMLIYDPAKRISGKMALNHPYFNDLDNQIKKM
# T7 sequence (P14635 whole entry partner): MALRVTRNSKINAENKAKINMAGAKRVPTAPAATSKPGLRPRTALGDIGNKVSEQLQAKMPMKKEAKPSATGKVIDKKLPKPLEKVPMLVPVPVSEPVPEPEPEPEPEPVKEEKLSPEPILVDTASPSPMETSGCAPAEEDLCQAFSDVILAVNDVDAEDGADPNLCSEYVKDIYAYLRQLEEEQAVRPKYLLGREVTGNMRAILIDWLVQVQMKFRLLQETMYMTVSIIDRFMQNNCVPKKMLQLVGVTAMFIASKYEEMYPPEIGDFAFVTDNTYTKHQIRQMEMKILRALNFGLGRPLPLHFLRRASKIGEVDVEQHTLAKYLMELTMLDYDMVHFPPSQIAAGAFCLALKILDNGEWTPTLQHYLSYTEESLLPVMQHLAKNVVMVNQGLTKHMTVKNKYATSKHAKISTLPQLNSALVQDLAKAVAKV
# Experimental: as §3
# [2] = tested on: IMQ-induced skin inflammation in mice; assay: imiquimod-induced dermal inflammation model; format: in vivo, mouse
# 5-HT1A (h) = target: T8, 5-HT1A (h) (Homo sapiens, UniProt P08908); assay: Cerep panel; format: binding
# T8 construct: purchased Cerep (receptors, ion channels, transporters); Eurofins Panlabs (kinases)
# T8 sequence (P08908 whole entry): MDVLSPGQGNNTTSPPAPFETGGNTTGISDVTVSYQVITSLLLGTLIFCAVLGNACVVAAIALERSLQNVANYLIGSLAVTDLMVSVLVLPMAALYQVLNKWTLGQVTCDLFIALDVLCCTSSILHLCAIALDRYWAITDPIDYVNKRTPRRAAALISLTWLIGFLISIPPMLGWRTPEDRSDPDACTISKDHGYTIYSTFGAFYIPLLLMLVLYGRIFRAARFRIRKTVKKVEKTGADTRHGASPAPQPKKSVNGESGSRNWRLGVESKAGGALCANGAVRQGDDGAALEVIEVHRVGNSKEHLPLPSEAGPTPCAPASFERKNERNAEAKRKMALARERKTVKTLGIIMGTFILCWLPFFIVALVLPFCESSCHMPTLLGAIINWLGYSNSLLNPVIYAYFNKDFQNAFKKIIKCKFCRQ
# Experimental: as §1
# M2 (h) = target: T9, M2 (h) (Homo sapiens, UniProt P08172); assay: Cerep panel; format: binding
# T9 construct: purchased Cerep (receptors, ion channels, transporters); Eurofins Panlabs (kinases)
# Experimental: as §1
# Aurora-B(h) = target: T10, Aurora-B(h) (Homo sapiens, UniProt Q96GD4); assay: Kinase panel; format: biochemical
# T10 construct: purchased Cerep (receptors, ion channels, transporters); Eurofins Panlabs (kinases)
# T10 sequence (Q96GD4 whole entry): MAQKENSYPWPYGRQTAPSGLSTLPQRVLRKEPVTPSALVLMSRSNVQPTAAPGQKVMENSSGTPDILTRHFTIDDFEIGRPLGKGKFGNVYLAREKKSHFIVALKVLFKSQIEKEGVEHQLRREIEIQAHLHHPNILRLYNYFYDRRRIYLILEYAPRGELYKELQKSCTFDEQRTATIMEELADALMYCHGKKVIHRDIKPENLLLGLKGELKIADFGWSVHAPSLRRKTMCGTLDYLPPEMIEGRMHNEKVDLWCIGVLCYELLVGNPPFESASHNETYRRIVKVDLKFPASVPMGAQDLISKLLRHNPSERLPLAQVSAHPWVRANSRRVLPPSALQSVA
# Experimental: as §3
# IR(h) = target: T11, IR(h) (Homo sapiens, UniProt P06213); assay: Kinase panel; format: biochemical
# T11 construct: purchased Cerep (receptors, ion channels, transporters); Eurofins Panlabs (kinases)
# T11 sequence (P06213 28-1382): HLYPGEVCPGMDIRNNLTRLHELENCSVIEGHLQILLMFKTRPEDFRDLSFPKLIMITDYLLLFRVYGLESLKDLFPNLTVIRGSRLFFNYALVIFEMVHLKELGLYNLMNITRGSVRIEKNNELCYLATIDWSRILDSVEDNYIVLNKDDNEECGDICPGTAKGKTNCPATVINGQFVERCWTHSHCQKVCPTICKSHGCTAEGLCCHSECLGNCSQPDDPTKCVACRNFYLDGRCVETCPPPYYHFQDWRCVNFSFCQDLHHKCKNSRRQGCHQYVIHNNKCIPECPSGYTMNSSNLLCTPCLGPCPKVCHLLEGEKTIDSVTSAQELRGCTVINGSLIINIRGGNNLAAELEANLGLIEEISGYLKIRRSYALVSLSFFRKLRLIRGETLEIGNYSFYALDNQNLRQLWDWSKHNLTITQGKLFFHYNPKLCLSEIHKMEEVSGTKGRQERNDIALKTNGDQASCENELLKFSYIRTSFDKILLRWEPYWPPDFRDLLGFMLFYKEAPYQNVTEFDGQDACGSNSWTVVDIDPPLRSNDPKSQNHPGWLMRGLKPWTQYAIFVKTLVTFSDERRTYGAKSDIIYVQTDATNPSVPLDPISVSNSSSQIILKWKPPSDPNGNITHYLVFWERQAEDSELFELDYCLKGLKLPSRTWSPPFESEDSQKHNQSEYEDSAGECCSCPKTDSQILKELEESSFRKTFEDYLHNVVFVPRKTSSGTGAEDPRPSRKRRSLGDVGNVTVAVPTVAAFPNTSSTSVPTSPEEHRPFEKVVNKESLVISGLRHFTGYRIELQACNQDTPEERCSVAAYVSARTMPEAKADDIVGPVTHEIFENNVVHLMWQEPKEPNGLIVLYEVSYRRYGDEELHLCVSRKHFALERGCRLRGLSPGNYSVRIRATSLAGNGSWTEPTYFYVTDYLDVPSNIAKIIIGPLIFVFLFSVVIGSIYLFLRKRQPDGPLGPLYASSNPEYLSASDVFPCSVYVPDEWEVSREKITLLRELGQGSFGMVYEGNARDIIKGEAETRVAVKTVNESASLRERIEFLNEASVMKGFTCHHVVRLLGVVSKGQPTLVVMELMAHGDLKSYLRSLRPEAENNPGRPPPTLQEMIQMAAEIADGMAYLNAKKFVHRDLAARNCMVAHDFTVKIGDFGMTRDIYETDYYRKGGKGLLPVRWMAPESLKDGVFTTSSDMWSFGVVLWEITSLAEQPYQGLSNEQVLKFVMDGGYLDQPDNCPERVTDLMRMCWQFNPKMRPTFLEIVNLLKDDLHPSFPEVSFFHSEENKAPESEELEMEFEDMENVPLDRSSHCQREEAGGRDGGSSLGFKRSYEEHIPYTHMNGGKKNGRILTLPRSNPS
# Experimental: as §3
# cSRC(h) = target: T12, cSRC(h) (Homo sapiens, UniProt P12931); assay: Kinase panel; format: biochemical
# T12 construct: purchased Cerep (receptors, ion channels, transporters); Eurofins Panlabs (kinases)
# Experimental: as §3
# ZIPK(h) = target: T13, ZIPK(h) (Homo sapiens, UniProt O43293); assay: Kinase panel; format: biochemical
# T13 construct: purchased Cerep (receptors, ion channels, transporters); Eurofins Panlabs (kinases)
# T13 sequence (O43293 whole entry): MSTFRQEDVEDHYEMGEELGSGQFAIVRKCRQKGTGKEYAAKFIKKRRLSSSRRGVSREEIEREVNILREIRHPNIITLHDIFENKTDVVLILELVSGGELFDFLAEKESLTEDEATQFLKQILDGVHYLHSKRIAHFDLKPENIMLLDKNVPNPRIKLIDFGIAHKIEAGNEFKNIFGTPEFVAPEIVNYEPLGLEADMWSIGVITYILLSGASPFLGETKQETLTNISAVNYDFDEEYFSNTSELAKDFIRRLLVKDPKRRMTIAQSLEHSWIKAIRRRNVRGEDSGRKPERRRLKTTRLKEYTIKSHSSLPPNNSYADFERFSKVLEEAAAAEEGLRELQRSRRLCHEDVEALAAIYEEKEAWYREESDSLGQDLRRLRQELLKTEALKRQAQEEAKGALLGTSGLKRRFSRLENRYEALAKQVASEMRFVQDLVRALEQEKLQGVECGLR
# Experimental: as §3
# A3 = target: T14, A3 (Homo sapiens, UniProt P0DMS8); assay: follow-up functional study; format: cell-based; settings: read-out: IC50 in follow-up functional studies
# T14 sequence (P0DMS8 1-318): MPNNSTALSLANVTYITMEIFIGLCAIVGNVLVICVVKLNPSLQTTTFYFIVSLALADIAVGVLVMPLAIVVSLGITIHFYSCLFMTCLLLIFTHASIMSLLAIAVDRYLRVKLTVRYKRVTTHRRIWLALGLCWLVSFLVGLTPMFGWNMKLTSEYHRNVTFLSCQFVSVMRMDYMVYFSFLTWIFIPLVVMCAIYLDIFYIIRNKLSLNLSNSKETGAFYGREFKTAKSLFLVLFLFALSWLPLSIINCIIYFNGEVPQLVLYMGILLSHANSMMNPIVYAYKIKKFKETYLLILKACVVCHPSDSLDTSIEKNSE
# mouse whole blood = assay: in vitro whole blood assay, IL-17A production; format: cell-based; settings: mouse whole blood diluted 1:4; read-out: IC50, inhibition of IL-17A production
# TK6 = assay: mammalian cell (TK6) micronucleus test; format: cell-based; settings: in vitro
# [3] = mouse PK/PD model, plasma exposure; format: in vivo; settings: female, C57B6, mouse, 100 mg/kg oral
# Source text: Compound concentrations are also listed as undiluted (measured) and diluted (extrapolated) in Supplementary Table S2.
# [4] = plasma (5-fold diluted, extrapolated), calculated for 5-fold dilution, read-out: concentration in 5-fold diluted plasma
# [5] = plasma, mean ± SD, n=10, read-out: concentration in undiluted plasma
compound,measurement,setting,value
CC1CCCN1C(=O)c1nc(C(=O)NCC(C)(C)O)sc1-c1ccc(C(O)(C(F)(F)F)C(F)(F)F)c(Cl)c1Cl (centres unmarked) [JNJ-61803534],inhibition at 1 µM,CCKA (h) (CCK1),< 10%
same,inhibition at 10 µM,CCKA (h) (CCK1),< 10%
same,EC50,delta; agonist,> 12.5 µM
same,IC50,delta; antagonist,> 12.5 µM
same,maximum inhibition of ex vivo stimulated IL-17A production as compared to placebo,"[1]; 100 mg single dose, fasted (cohort 3)",45%
same,maximum inhibition of ex vivo stimulated IL-17A production as compared to placebo,[1]; 200 mg single dose (cohort 4),54%
same,IL-17A inhibition,[1]; 10 and 30 mg doses,did not appear to show a separation from placebo
same,fraction unbound,plasma protein binding,0.011
same,activity at 1 µM,Plk3(h),120%
same,activity at 10 µM,Plk3(h),114%
same,inhibition at 1 µM,5-HT3 (h),< 10%
same,inhibition at 10 µM,5-HT3 (h),< 10%
same,inhibition at 1 µM,A2A (h),< 10%
same,inhibition at 10 µM,A2A (h),< 10%
same,IC50,LXRβ,> 1.5 µM
same,EC50,D2L; agonist,> 12.5 µM
same,IC50,D2L; antagonist,> 12.5 µM
same,inhibition at 1 µM,ORL1 (h) (NOP),< 10%
same,inhibition at 10 µM,ORL1 (h) (NOP),< 10%
same,activity at 1 µM,CDK1/cyclinB(h),96%
same,activity at 10 µM,CDK1/cyclinB(h),108%
same,IL-17A and IL-17F expression,"[2]; 30 mg/kg, ears, RNA level",trend towards inhibition
same,IMQ-induced neutrophils and inflammatory monocytes infiltrations in the ear,[2]; 100 mg/kg,significantly reduced
same,"IMQ-induced expression of IL-17A, IL-17F, and IL-22 genes","[2]; 100 mg/kg, ears, RNA level",significantly inhibited
same,"disease scores (thickness, redness, scaling) of back skin","[2]; 30 and 100 mg/kg oral, dose-dependent",significantly reduced
same,IL-10 expression,"[2]; 30 and 100 mg/kg, RNA level",not inhibited
same,IL-23R expression,"[2]; 30 and 100 mg/kg, RNA level",trend towards inhibition
same,IFNγ expression,[2]; RNA level,minimally impacted
same,IL-17A- and IL-17A/IL-22-producing γδ T cell populations,"[2]; ear skin and draining lymph nodes, dose-dependent",reduced
same,inhibition at 1 µM,5-HT1A (h),< 10%
same,inhibition at 10 µM,5-HT1A (h),< 10%
same,inhibition at 1 µM,M2 (h),< 10%
same,inhibition at 10 µM,M2 (h),< 10%
same,activity at 1 µM,Aurora-B(h),124%
same,activity at 10 µM,Aurora-B(h),145%
same,activity at 1 µM,IR(h),92%
same,activity at 10 µM,IR(h),89%
same,activity at 1 µM,cSRC(h),78%
same,activity at 10 µM,cSRC(h),80%
same,activity at 1 µM,ZIPK(h),113%
same,activity at 10 µM,ZIPK(h),120%
same,IC50,A3,> 12.5 µM
same,IC50,mouse whole blood,0.172 ± 0.05 µM
same,genetic toxicity,TK6,negative
same,concentration at 1 h,[3]; [4],10 ± 2.8 µM
same,concentration at 2 h,[3]; [4],6.1 ± 3.1 µM
same,concentration at 4 h,[3]; [4],5 ± 1.7 µM
same,concentration at 7 h,[3]; [4],2.3 ± 0.5 µM
same,concentration at 12 h,[3]; [4],0.86 ± 0.4 µM
same,concentration at 18 h,[3]; [4],0.24 ± 0.1 µM
same,concentration at 1 h,[3]; [5],31000 ng/mL and 49.8 µM
same,concentration at 2 h,[3]; [5],18900 ng/mL and 30.4 µM
same,concentration at 4 h,[3]; [5],15500 ng/mL and 24.9 µM
same,concentration at 7 h,[3]; [5],11.7 µM and 7280 ng/mL
same,concentration at 12 h,[3]; [5],4.3 µM and 2670 ng/mL
same,concentration at 18 h,[3]; [5],1.2 µM and 759 ng/mL
